The record followed here is US11590139B2, “Substituted aminopurine compounds, compositions thereof, and methods of treatment therewith” (Signal Pharmaceuticals, LLC, priority 2014, dated 2023).

The test system of the first assay is Lox-IMVI melanoma cell line. The experiment in a line: Lox-IMVI anti-proliferative assay (growth inhibition, Cell Titer-Glo). Type of assay: cell-based, human. Particulars: Homo sapiens; IC50 activity level in the cell-based Lox-IMVI anti-proliferative assay; read-out: Activity. A digest of the protocol: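 Luminescence from cellular ATP measured viability at compound addition and again after 72 h of exposure (37 °C, 5% CO2, RPMI + 10% FBS). Doses spanned 0.5 nM to 10 μM in ten 3-fold steps with 0.2% DMSO. Values were fitted as % of DMSO-treated cells by sigmoidal dose-response.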
Turning to `NC(=O)[C@H]1CC[C@@H](n2c(Nc3c(Cl)cc(F)cc3Cl)nc3cnc(N[C@@H]4CCC[C@H]4O)nc32)CC1` [Example 256, (1S,4s)-4-(8-(2,6-dichloro-4-fluorophenylamino)-2-((1R,2R)-2-hydroxycyclopentylamino)-9H-purin-9-yl)cyclohexanecarboxamide], the IC50 was above 1000 nM.
Consider `NC(=O)[C@H]1CC[C@@H](n2c(Nc3c(F)cc(Cl)cc3Cl)nc3cnc(N[C@H]4CCC[C@@H]4O)nc32)CC1` [Example 271, (1R,4s)-4-(8-(2,4-dichloro-6-fluorophenylamino)-2-((1S,2S)-2-hydroxycyclopentylamino)-9H-purin-9-yl)cyclohexanecarboxamide], for which the IC50 fell in the range of 500 to 1000 nM.
Same read-out and setting: as for `NC(=O)[C@H]1CC[C@@H](n2c(Nc3c(Cl)cc(Cl)cc3Cl)nc3cnc(N[C@@H]4CCOC4)nc32)CC1` [Example 76, (1S,4s)-4-(2-((R)-tetrahydrofuran-3-ylamino)-8-(2,4,6-trichlorophenylamino)-9H-purin-9-yl)cyclohexanecarboxamide], the figure is 250 to 500 nM; as for `N#Cc1ccc(Nc2nc3cnc(NC4CCOCC4)nc3n2[C@H]2CC[C@@H](C(N)=O)CC2)c(Cl)c1` [Example 248, (1s,4s)-4-(8-(2-chloro-4-cyanophenylamino)-2-(tetrahydro-2H-pyran-4-ylamino)-9H-purin-9-yl)cyclohexanecarboxamide], 500 to 1000 nM.
Still for that read-out and setting: to `CO[C@H]1CC[C@H](Nc2ncc3nc(Nc4c(Cl)cc(Cl)cc4Cl)n([C@H]4CC[C@@H](C(N)=O)CC4)c3n2)CC1` [Example 77, (1s,4s)-4-(2-((1r,4r)-4-methoxycyclohexylamino)-8-(2,4,6-trichlorophenylamino)-9H-purin-9-yl)cyclohexanecarboxamide] belongs 500 to 1000 nM.
Regarding `CC[C@@H](CO)Nc1ncc2nc(Nc3c(F)ccc(F)c3F)n([C@H]3CC[C@@H](C(N)=O)CC3)c2n1` [Example 148, (1R,4s)-4-(2-((S)-1-hydroxybutan-2-ylamino)-8-(2,3,6-trifluorophenylamino)-9H-purin-9-yl)cyclohexanecarboxamide], the IC50 was above 1000 nM.
Take `Cc1cc(Cl)cc(F)c1Nc1nc2cnc(NC3CCOCC3)nc2n1[C@H]1CC[C@@H](C(N)=O)CC1` [Example 75, (1s,4s)-4-(8-(4-chloro-2-fluoro-6-methylphenylamino)-2-(tetrahydro-2H-pyran-4-ylamino)-9H-purin-9-yl)cyclohexanecarboxamide]: the IC50 was above 1000 nM.
Take `Cc1cc(Nc2nc3cnc(NC4CCOCC4)nc3n2[C@H]2CC[C@@H](C(N)=O)CC2)c(F)cc1Cl` [Example 71, (1s,4s)-4-(8-(4-chloro-2-fluoro-5-methylphenylamino)-2-(tetrahydro-2H-pyran-4-ylamino)-9H-purin-9-yl)cyclohexanecarboxamide]: the IC50 is above 1000 nM.
On to `NC(=O)[C@H]1CC[C@@H](n2c(Nc3c(F)cc(Cl)cc3Cl)nc3cnc(NC4CC(F)(F)C4)nc32)CC1` [Example 230, (1s,4s)-4-(8-(2,4-dichloro-6-fluorophenylamino)-2-(3,3-difluorocyclobutylamino)-9H-purin-9-yl)cyclohexanecarboxamide], for which the IC50 was 250 to 500 nM.
The same measure, in the same setting: as for `N#Cc1cc(F)c(Nc2nc3cnc(NC4CCC4)nc3n2[C@H]2CC[C@@H](C(N)=O)CC2)c(F)c1` [Example 368, (1s,4s)-4-(8-(4-cyano-2,6-difluorophenylamino)-2-(cyclobutylamino)-9H-purin-9-yl)cyclohexanecarboxamide], the figure is 500 to 1000 nM; as for `NC(=O)[C@H]1CC[C@@H](n2c(Nc3c(F)cc(Cl)cc3F)nc3cnc(NC4COCC4O)nc32)CC1` (stereo partly drawn) [Example 184, (1s,4s)-4-(8-(4-chloro-2,6-difluorophenylamino)-2-(4-hydroxytetrahydrofuran-3-ylamino)-9H-purin-9-yl)cyclohexanecarboxamide], above 1000 nM.
`C[C@@H]1CC[C@@H](Nc2ncc3nc(Nc4c(F)cc(Cl)cc4F)n([C@H]4CC[C@@H](C(N)=O)CC4)c3n2)C[C@H]1O` [Example 356, (1S,4s)-4-(8-(4-chloro-2,6-difluorophenylamino)-2-((1R,3R,4R)-3-hydroxy-4-methylcyclohexylamino)-9H-purin-9-yl)cyclohexanecarboxamide]: the IC50 is above 1000 nM.
In the case of `NC(=O)[C@H]1CC[C@@H](n2c(Nc3c(F)cc(F)cc3Cl)nc3cnc(NC4CCC4)nc32)CC1` [Example 117, (1s,4s)-4-(8-(2-chloro-4,6-difluorophenylamino)-2-(cyclobutylamino)-9H-purin-9-yl)cyclohexanecarboxamide], the IC50 is 500 to 1000 nM.

Staying with this assay, now noted: Homo sapiens; Lox-IMVI anti-proliferative assay, IC50 activity level; read-out: Activity.
For `COC(=O)N1CCCC(Nc2ncc3nc(Nc4c(F)cc(Cl)cc4Cl)n([C@H]4CC[C@@H](C(N)=O)CC4)c3n2)C1` (stereo partly drawn) [Example 412, (R)-methyl 3-(9-((1s,4S)-4-carbamoylcyclohexyl)-8-(2,4-dichloro-6-fluorophenylamino)-9H-purin-2-ylamino)piperidine-1-carboxylate], the IC50 lay in the range of 250 to 500 nM.
Regarding `NC(=O)[C@H]1CC[C@@H](n2c(Nc3c(F)cc(F)cc3Cl)nc3cnc(N[C@H]4CCC(F)(F)C4)nc32)CC1` [Example 589, (1R,4s)-4-(8-(2-chloro-4,6-difluorophenylamino)-2-((S)-3,3-difluorocyclopentylamino)-9H-purin-9-yl)cyclohexanecarboxamide], the IC50 was in the range of 250 to 500 nM.
For the compound `NC(=O)[C@H]1CC[C@@H](n2c(Nc3c(F)cc(F)cc3F)nc3cnc(N[C@@H]4CCC[C@@H](O)C4)nc32)CC1` [Example 418, (1S,4s)-4-(2-((1R,3R)-3-hydroxycyclohexylamino)-8-(2,4,6-trifluorophenylamino)-9H-purin-9-yl)cyclohexanecarboxamide], the IC50 was above 1000 nM.
Regarding `N#Cc1cc(F)c(Nc2nc3cnc(N[C@H]4CCCC[C@H]4O)nc3n2[C@H]2CC[C@@H](C(N)=O)CC2)c(Cl)c1` [Example 517, (1R,4s)-4-(8-(2-chloro-4-cyano-6-fluorophenylamino)-2-((1S,2R)-2-hydroxycyclohexylamino)-9H-purin-9-yl)cyclohexanecarboxamide], the IC50 was above 1000 nM.
In the case of `C[C@H]1COCC[C@@H]1Nc1ncc2nc(Nc3c(F)cc(Cl)cc3F)n([C@H]3CC[C@@H](C(N)=O)CC3)c2n1` [Example 507, (1R,4s)-4-(8-(4-chloro-2,6-difluorophenylamino)-2-((3R,4S)-3-methyltetrahydro-2H-pyran-4-ylamino)-9H-purin-9-yl)cyclohexanecarboxamide], the IC50 is above 1000 nM.

Still in this assay, the particulars now being: Homo sapiens; Lox-IMVI melanoma cell line, anti-proliferative assay; read-out: Activity (IC50 activity level).
Take `NC(=O)[C@H]1CC[C@@H](n2c(Nc3c(F)cc(F)cc3Cl)nc3cnc(N[C@H]4CCOC[C@H]4F)nc32)CC1` [Example 692, (1R,4s)-4-(8-(2-chloro-4,6-difluorophenylamino)-2-((3S,4S)-3-fluorotetrahydro-2H-pyran-4-ylamino)-9H-purin-9-yl)cyclohexanecarboxamide]: the IC50 was below 250 nM.
As to `C[C@]1(C(N)=O)CC[C@@H](n2c(Nc3c(F)cc(F)cc3Cl)nc3cnc(NC4CCOCC4)nc32)CC1` [Example 673, (1s,4s)-4-(8-(2-chloro-4,6-difluorophenylamino)-2-(tetrahydro-2H-pyran-4-ylamino)-9H-purin-9-yl)-1-methylcyclohexanecarboxamide], the IC50 is below 250 nM.
For `CC(C)OC(=O)N1CCC[C@@H](Nc2ncc3nc(Nc4c(F)cc(Cl)cc4F)n([C@H]4CC[C@@H](C(N)=O)CC4)c3n2)C1` [Example 773, (R)-isopropyl 3-(9-((1s,4S)-4-carbamoylcyclohexyl)-8-(4-chloro-2,6-difluorophenylamino)-9H-purin-2-ylamino)piperidine-1-carboxylate], the IC50 is 500 to 1000 nM.
In the case of `NC(=O)[C@H]1CC[C@@H](n2c(Nc3c(Cl)cc(Cl)cc3Cl)nc3cnc(N[C@@H]4CCCN(c5ccccc5)C4)nc32)CC1` [Example 743, (1S,4s)-4-(2-((R)-1-phenylpiperidin-3-ylamino)-8-(2,4,6-trichlorophenylamino)-9H-purin-9-yl)cyclohexanecarboxamide], the IC50 is above 1000 nM.
For `C[C@]1(C(N)=O)CC[C@@H](n2c(Nc3c(F)cc(F)cc3F)nc3cnc(N[C@H]4CCC[C@H](O)C4)nc32)CC1` [Example 609, (1R,4s)-4-(2-((1S,3S)-3-hydroxycyclohexylamino)-8-(2,4,6-trifluorophenylamino)-9H-purin-9-yl)-1-methylcyclohexanecarboxamide], the IC50 is 250 to 500 nM.
As for `N#Cc1cc(Cl)c(Nc2nc3cnc(NC4CCC(c5ncno5)CC4)nc3n2[C@H]2CC[C@@H](C(N)=O)CC2)c(Cl)c1` (stereo partly drawn) [Example 681, (1s,4s)-4-(2-(4-(1,2,4-oxadiazol-5-yl)cyclohexylamino)-8-(2,6-dichloro-4-cyanophenylamino)-9H-purin-9-yl)cyclohexanecarboxamide], the IC50 was above 1000 nM.
Turning to `N#Cc1cc(F)c(Nc2nc3cnc(N[C@@H]4CCCN(c5ccccc5)C4)nc3n2[C@H]2CC[C@@H](C(N)=O)CC2)c(F)c1` [Example 745, (1S,4s)-4-(8-(4-cyano-2,6-difluorophenylamino)-2-((R)-1-phenylpiperidin-3-ylamino)-9H-purin-9-yl)cyclohexanecarboxamide], the IC50 is above 1000 nM.
Take `N#Cc1cc(F)c(Nc2nc3cnc(N[C@@H]4CCOC[C@H]4F)nc3n2[C@H]2CC[C@@H](C(N)=O)CC2)c(Cl)c1` [Example 629, (1S,4s)-4-(8-(2-chloro-4-cyano-6-fluorophenylamino)-2-((3S,4R)-3-fluorotetrahydro-2H-pyran-4-ylamino)-9H-purin-9-yl)cyclohexanecarboxamide]: the IC50 is below 250 nM.
Take `C[C@]1(C(N)=O)CC[C@@H](n2c(Nc3c(F)cc(F)cc3Cl)nc3cnc(N[C@@H]4CC[C@@H](O)C4)nc32)CC1` [Example 635, (1S,4s)-4-(8-(2-chloro-4,6-difluorophenylamino)-2-((1R,3R)-3-hydroxycyclopentylamino)-9H-purin-9-yl)-1-methylcyclohexanecarboxamide]: the IC50 is 250 to 500 nM.
